In the supplement of paper PMC10733146:

Key:
Experiment in all cases: viability relative to DMSO control (fraction); higher = less drug effect (more viable cells)
Details in all cases: 48 h
Pomalidomide = compound: Nc1cccc2c1C(=O)N(C1CCC(=O)NC1=O)C2=O [Pomalidomide]
How it was run: (§1)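 Viability was quantified by CellTiter-Glo luminescence and related to the median of 16 inner DMSO wells. Before that, primary mononuclear tumour cells, fresh or cryopreserved and Ficoll-isolated from blood or bone marrow or prepared from processed lymph node, were plated at 4 × 10^4 cells per well in 384-well plates containing pre-plated compounds at five concentrations, one well each. Plates were incubated in RPMI-1640 with penicillin/streptomycin, L-glutamine and human serum at 37 °C and 5% CO2 for 48 h.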

Roscovitine = compound: CC[C@H](CO)Nc1nc(NCc2ccccc2)c2ncn(C(C)C)c2n1 [Roscovitine]
How it was run: as §1

Chlorambucil = compound: O=C(O)CCCc1ccc(N(CCCl)CCCl)cc1 [Chlorambucil]
How it was run: as §1

Tofacitinib = compound: C[C@@H]1CCN(C(=O)CC#N)C[C@@H]1N(C)c1ncnc2[nH]ccc12 [Tofacitinib]
How it was run: as §1

SGC 0946 = compound: CC(C)N(CCCNC(=O)Nc1ccc(C(C)(C)C)cc1)C[C@H]1O[C@@H](n2cc(Br)c3c(N)ncnc32)[C@H](O)[C@@H]1O [SGC 0946]
How it was run: as §1

Palbociclib = compound: CC(=O)c1c(C)c2cnc(Nc3ccc(N4CCNCC4)cn3)nc2n(C2CCCC2)c1=O [Palbociclib]
How it was run: as §1

[1] = compound: O=C(Nc1ccc2[nH]nc(-c3ccncc3)c2c1)[C@@H]1CCN(CC(=O)N2CCN(c3ccc(-c4ncccn4)cc3)CC2)C1
How it was run: as §1

Barasertib = compound: CCN(CCCOc1ccc2c(Nc3cc(CC(=O)Nc4cccc(F)c4)[nH]n3)ncnc2c1)CCOP(=O)(O)O [Barasertib]
How it was run: as §1

Entospletinib = compound: c1cn2cc(-c3ccc4cn[nH]c4c3)nc(Nc3ccc(N4CCOCC4)cc3)c2n1 [Entospletinib]
How it was run: as §1

Etoposide = compound: COc1cc([C@@H]2c3cc4c(cc3[C@@H](O[C@@H]3O[C@@H]5CO[C@@H](C)O[C@H]5[C@H](O)[C@H]3O)[C@H]3COC(=O)[C@H]23)OCO4)cc(OC)c1O [Etoposide]
How it was run: as §1

I-BET-762 = compound: CCNC(=O)C[C@@H]1N=C(c2ccc(Cl)cc2)c2cc(OC)ccc2-n2c(C)nnc21 [I-BET-762]
How it was run: as §1

Thalidomide = compound: O=C1CCC(N2C(=O)c3ccccc3C2=O)C(=O)N1 [Thalidomide]
How it was run: as §1

EPZ-6438 = compound: CCN(c1cc(-c2ccc(CN3CCOCC3)cc2)cc(C(=O)NCc2c(C)cc(C)[nH]c2=O)c1C)C1CCOCC1 [EPZ-6438]
How it was run: as §1

CPI-169 = compound: CCS(=O)(=O)N1CCC([C@@H](C)n2c(C)c(C(=O)NCc3c(OC)cc(C)[nH]c3=O)c3ccccc32)CC1 [CPI-169]
How it was run: as §1

[2] = compound: C[C@H]1C[C@@H](n2c(Nc3ccc(OC(F)(F)F)cc3)nc3cc(CCC(=O)O)ccc32)CC(C)(C)C1
How it was run: as §1

primary MCL patient cells (S068)
viability (Pomalidomide; 0.0032 µM): 0.909 | viability (Pomalidomide; 0.016 µM): 0.93 | viability (Pomalidomide; 0.08 µM): 0.98 | viability (Pomalidomide; 0.4 µM): 0.929 | viability (Pomalidomide; 2 µM): 0.767 | viability (Roscovitine; 0.032 µM): 0.834 | viability (Roscovitine; 0.16 µM): 0.913 | viability (Roscovitine; 0.8 µM): 0.772 | viability (Roscovitine; 4 µM): 0.717 | viability (Roscovitine; 20 µM): 0.351 | viability (Chlorambucil; 0.032 µM): 1.02 | viability (Chlorambucil; 0.16 µM): 1.03 | viability (Chlorambucil; 0.8 µM): 0.941 | viability (Chlorambucil; 4 µM): 0.857 | viability (Chlorambucil; 20 µM): 0.624 | viability (Tofacitinib; 0.024 µM): 0.953 | viability (Tofacitinib; 0.12 µM): 0.948 | viability (Tofacitinib; 0.6 µM): 0.896 | viability (Tofacitinib; 3 µM): 0.884 | viability (Tofacitinib; 15 µM): 0.757 | viability (SGC 0946; 0.024 µM): 0.822 | viability (SGC 0946; 0.12 µM): 0.893 | viability (SGC 0946; 0.6 µM): 0.877 | viability (SGC 0946; 3 µM): 0.79 | viability (SGC 0946; 15 µM): 0.462 | viability (Palbociclib; 0.024 µM): 0.913 | viability (Palbociclib; 0.12 µM): 0.842 | viability (Palbociclib; 0.6 µM): 0.547 | viability (Palbociclib; 3 µM): 0.367 | viability (Palbociclib; 15 µM): 0.262 | viability ([1]; 0.008 µM): 0.882 | viability ([1]; 0.04 µM): 0.828 | viability ([1]; 0.2 µM): 0.768 | viability ([1]; 1 µM): 0.7 | viability ([1]; 5 µM): 0.665 | viability (Barasertib; 0.0008 µM): 0.947 | viability (Barasertib; 0.004 µM): 0.894 | viability (Barasertib; 0.02 µM): 0.846 | viability (Barasertib; 0.1 µM): 0.887 | viability (Barasertib; 0.5 µM): 0.97 | viability (Entospletinib; 0.024 µM): 0.935 | viability (Entospletinib; 0.12 µM): 0.92 | viability (Entospletinib; 0.6 µM): 0.872 | viability (Entospletinib; 3 µM): 0.836 | viability (Entospletinib; 15 µM): 0.888 | viability (Etoposide; 0.032 µM): 1.03 | viability (Etoposide; 0.16 µM): 0.956 | viability (Etoposide; 0.8 µM): 0.952 | viability (Etoposide; 4 µM): 0.933 | viability (Etoposide; 20 µM): 0.624 | viability (I-BET-762; 0.008 µM): 0.993 | viability (I-BET-762; 0.04 µM): 0.932 | viability (I-BET-762; 0.2 µM): 0.69 | viability (I-BET-762; 1 µM): 0.341 | viability (I-BET-762; 5 µM): 0.218 | viability (Thalidomide; 0.032 µM): 0.978 | viability (Thalidomide; 0.16 µM): 0.936 | viability (Thalidomide; 0.8 µM): 0.917 | viability (Thalidomide; 4 µM): 0.966 | viability (Thalidomide; 20 µM): 0.96 | viability (EPZ-6438; 0.024 µM): 0.954 | viability (EPZ-6438; 0.12 µM): 1.04 | viability (EPZ-6438; 0.6 µM): 0.997 | viability (EPZ-6438; 3 µM): 0.918 | viability (EPZ-6438; 15 µM): 0.767 | viability (CPI-169; 0.024 µM): 0.823 | viability (CPI-169; 0.12 µM): 0.922 | viability (CPI-169; 0.6 µM): 0.869 | viability (CPI-169; 3 µM): 0.937 | viability (CPI-169; 15 µM): 0.889 | viability ([2]; 0.024 µM): 0.917 | viability ([2]; 0.12 µM): 0.852 | viability ([2]; 0.6 µM): 0.72 | viability ([2]; 3 µM): 0.859 | viability ([2]; 15 µM): 0.843

primary T-PLL patient cells (S008)
viability (Pomalidomide; 0.0032 µM): 0.949 | viability (Pomalidomide; 0.016 µM): 1.07 | viability (Pomalidomide; 0.08 µM): 1.03 | viability (Pomalidomide; 0.4 µM): 0.91 | viability (Pomalidomide; 2 µM): 0.944 | viability (Roscovitine; 0.032 µM): 0.978 | viability (Roscovitine; 0.16 µM): 1.06 | viability (Roscovitine; 0.8 µM): 0.972 | viability (Roscovitine; 4 µM): 1.05 | viability (Roscovitine; 20 µM): 0.949 | viability (Chlorambucil; 0.032 µM): 0.977 | viability (Chlorambucil; 0.16 µM): 0.955 | viability (Chlorambucil; 0.8 µM): 1.01 | viability (Chlorambucil; 4 µM): 0.984 | viability (Chlorambucil; 20 µM): 0.661 | viability (Tofacitinib; 0.024 µM): 0.919 | viability (Tofacitinib; 0.12 µM): 0.906 | viability (Tofacitinib; 0.6 µM): 0.922 | viability (Tofacitinib; 3 µM): 0.913 | viability (Tofacitinib; 15 µM): 0.927 | viability (SGC 0946; 0.024 µM): 1.02 | viability (SGC 0946; 0.12 µM): 1.14 | viability (SGC 0946; 0.6 µM): 0.98 | viability (SGC 0946; 3 µM): 1.04 | viability (SGC 0946; 15 µM): 0.868 | viability (Palbociclib; 0.024 µM): 1.05 | viability (Palbociclib; 0.12 µM): 1.02 | viability (Palbociclib; 0.6 µM): 1.02 | viability (Palbociclib; 3 µM): 1.01 | viability (Palbociclib; 15 µM): 0.778 | viability ([1]; 0.008 µM): 1.03 | viability ([1]; 0.04 µM): 1.03 | viability ([1]; 0.2 µM): 1.04 | viability ([1]; 1 µM): 1.06 | viability ([1]; 5 µM): 0.938 | viability (Barasertib; 0.0008 µM): 0.937 | viability (Barasertib; 0.004 µM): 0.926 | viability (Barasertib; 0.02 µM): 0.945 | viability (Barasertib; 0.1 µM): 1.03 | viability (Barasertib; 0.5 µM): 1.06 | viability (Entospletinib; 0.024 µM): 1.01 | viability (Entospletinib; 0.12 µM): 1.06 | viability (Entospletinib; 0.6 µM): 0.955 | viability (Entospletinib; 3 µM): 0.995 | viability (Entospletinib; 15 µM): 1.04 | viability (Etoposide; 0.032 µM): 1.01 | viability (Etoposide; 0.16 µM): 1.09 | viability (Etoposide; 0.8 µM): 1.03 | viability (Etoposide; 4 µM): 1.03 | viability (Etoposide; 20 µM): 0.945 | viability (I-BET-762; 0.008 µM): 1.03 | viability (I-BET-762; 0.04 µM): 1.03 | viability (I-BET-762; 0.2 µM): 1.05 | viability (I-BET-762; 1 µM): 1.03 | viability (I-BET-762; 5 µM): 0.988 | viability (Thalidomide; 0.032 µM): 1.04 | viability (Thalidomide; 0.16 µM): 0.979 | viability (Thalidomide; 0.8 µM): 1.04 | viability (Thalidomide; 4 µM): 0.987 | viability (Thalidomide; 20 µM): 1.05 | viability (EPZ-6438; 0.024 µM): 0.986 | viability (EPZ-6438; 0.12 µM): 1 | viability (EPZ-6438; 0.6 µM): 1.04 | viability (EPZ-6438; 3 µM): 1 | viability (EPZ-6438; 15 µM): 0.918 | viability (CPI-169; 0.024 µM): 1 | viability (CPI-169; 0.12 µM): 0.999 | viability (CPI-169; 0.6 µM): 1.03 | viability (CPI-169; 3 µM): 1.02 | viability (CPI-169; 15 µM): 1.05 | viability ([2]; 0.024 µM): 0.96 | viability ([2]; 0.12 µM): 1.03 | viability ([2]; 0.6 µM): 1.04 | viability ([2]; 3 µM): 0.96 | viability ([2]; 15 µM): 0.983
